{"source": "paper PMC10604720", "about": "“Unraveling the Mechanism of Epichaperome Modulation by Zelavespib: Biochemical Insights on Target Occupancy and Extended Residence Time at the Site of Action” (Biomedicines, 2023)", "key": {"[1]": {"parameters": "method as in PMID 28808818", "settings": "human patients, no dependency on dose level; cited from earlier work"}, "chaperone assemblies": {"tested_on": "chaperone assemblies", "assay": "Kinetics of chaperone-zelavespib assembly taken from Phase 1 clearance", "parameters": "species or system mouse", "settings": "in vivo, fast off-rate", "experimental": "(§1) Figure 1 Biodistribution of zelavespib in MDA-MB-468 tumor-bearing mice. (a) Biodistribution of [^124I]-Zelavespib in MDA-MB-468 tumors, organs, tissues, and plasma as per ref. [32]. Data are presented as means ± s.d., five mice per time point. Curves for blood, lung, heart, muscle, bone, and brain were fitted using a one-phase decay equation, and kinetics of zelavespib clearance were determined. Tumor curve was fitted to a two-phase exponential decay. k, kfast, and kslow are the rate constants. Half-life (T1/2) is computed as ln(2)/k. […] (b) Illustrative schematic showing the distinct binding kinetics of zelavespib to epichaperomes (slow off-rate) and to chaperone assemblies (fast off-rate). The tumor pharmacokinetics profile recorded in the Phase 2 interval may represent a direct reflection of the in vivo kinetics of target–drug unbinding. koff, kinetic rate constant for dissociation of an epichaperome-zelavespib assembly. Rt, retention time. […]"}, "epichaperomes [2]": {"tested_on": "epichaperomes", "assay": "Epichaperome determination by native PAGE / SDS-PAGE immunoblotting of MDA-MB-468 tumors", "format": "in vivo, mouse", "experimental": "For epichaperome analysis, tumors were cut into small pieces and homogenized in native lysis buffer (20 mM HEPES pH 7.5, 50 mM KCl, 5 mM MgCl2, 0.01% NP40, 20 mM Na2MoO4) containing protease and phosphatase inhibitors using BioMasher® II Micro Tissue Homogenizers (VWR, Radnor, PA, USA). Samples were left on ice for 30 min and then subjected to native PAGE analysis. Protein concentrations were determined using the BCA kit (Pierce, Waltham, MA, USA) according to the manufacturer’s instructions. Protein lysate (10–60 µg) was loaded onto 5.5% native gel and resolved at 4 °C, transferred to nitrocellulose membrane, and probed with the indicated primary antibodies: HSP90α (AB2928; RRID:AB_303423; 1:8000) from Abcam (Cambridge, UK), HOP (ADI-SRA-1500; RRID:AB_10618972; 1:1000) from Enzo and CDC37 (4793S; RRID:AB_10695539; 1:1000) from Cell Signaling (Danvers, MA, USA). Membranes were then incubated with a 1:5000 dilution of a peroxidase-conjugated corresponding secondary antibody. Detection was performed using the ECL Enhanced Chemiluminescence Detection System (Pierce™ ECL Western Blotting Substrate) according to the manufacturer’s instructions.\nIn cellular studies, it has been proposed that zelavespib, upon binding, becomes trapped inside the epichaperome assemblies, leading to the disassembly of epichaperomes into individual components. However, this biochemical mechanism’s impact on the residence time of zelavespib at the site of action remains poorly understood in vivo. To investigate this, we analyzed the epichaperome target in tumors at 30 h and 72 h post-zelavespib administration using non-denaturing electrophoresis (native PAGE) (Figure 4a–c).\nFigure 4 Epichaperome modulation by zelavespib in MDA-MB-468 tumor-bearing mice. (a) native-PAGE (top) or SDS-PAGE (bottom) followed by immunoblotting of epichaperome components (i.e., constituent chaperones and co-chaperones) in MDA-MB-468 tumors. Tumor-bearing mice were injected with a single dose of 50 mg/kg zelavespib, and tumor analysis was performed after sacrificing the mice at 30 h and 72 h post-zelavespib administration (n = 5 mice per time-point). Gels, representative tumors. To account for tumor heterogeneity (i.e., MDA-MB-468 are aggressive tumors with highly proliferative periphery adjacent to areas of necrosis), several cuts from the same tumor were analyzed when tumor size permitted. β-actin and GAPDH, protein loading controls; black arrowhead, biochemical signature of folding HSP90 pools as detected by native PAGE separation and immunoblotting; red arrowhead, non-specific signal, LE, low exposure; HE, high exposure. (b) Graph, data are presented as means ± s.e.m., n = 7, one-way ANOVA with Dunnett’s post hoc of tumors as in a. Because HSP90 in epichaperomes was not well separated from the folding HSP90 pool, we performed epichaperome quantification using CDC37 in epichaperomes as a surrogate marker. (c) Cartoon showing the proposed biochemical mechanism in vivo. Initially, zelavespib becomes trapped when epichaperomes bound, a mechanism that results in epichaperome disassembly, with no change in the expression level of epichaperome constituents. We propose that the initial trapping stage of epichaperomes is a main contributing factor to the extended on-target residence time observed for this agent in clinical settings. Zelavespib’s residence time in tumors seems to be dictated by target disassembly kinetics rather than by frank drug–target unbinding kinetics."}, "epichaperomes [3]": {"tested_on": "epichaperomes", "assay": "In vivo target-drug unbinding kinetics taken from Phase 2 tumor pharmacokinetics", "parameters": "species or system mouse", "experimental": "as §1"}}}
{"molecule": "CC(C)NCCCn1c(Sc2cc3c(cc2I)OCO3)nc2c(N)ncnc21", "note": "[zelavespib]", "values": [{"measurement": "mean terminal half-life (T1/2) in the plasma", "setting": "[1]", "result": "8.4 ± 3.6", "unit": "h"}, {"measurement": "T1/2, chaperone-zelavespib assembly", "setting": "chaperone assemblies", "result": "~ 3 h"}, {"measurement": "k Phase 1, chaperone-zelavespib assembly", "setting": "chaperone assemblies", "result": "~ 0.2 h^-1"}, {"measurement": "total chaperone levels on SDS-PAGE", "setting": "epichaperomes [2]; 30 h post single 50 mg/kg", "result": "no corresponding alteration"}, {"measurement": "increase in epichaperome signal on native PAGE compared to baseline", "setting": "epichaperomes [2]; 30 h post single 50 mg/kg, CDC37 in epichaperomes as surrogate marker", "result": "~2.29", "unit": "fold"}, {"measurement": "decrease of epichaperome levels compared to baseline", "setting": "epichaperomes [2]; 72 h post single 50 mg/kg", "result": "approximately 1.8 fold"}, {"measurement": "total chaperone levels on SDS-PAGE", "setting": "epichaperomes [2]; 72 h post single 50 mg/kg", "result": "no observable change"}, {"measurement": "decrease in epichaperome signal on native PAGE compared to 30 h", "setting": "epichaperomes [2]; 72 h post single 50 mg/kg, CDC37 in epichaperomes as surrogate marker", "result": "approximately 4.15 fold"}, {"measurement": "baseline epichaperome target remaining in tumors", "setting": "epichaperomes [2]; 72 h post-zelavespib administration", "result": "approximately 24.09%"}, {"measurement": "Rt = 1/koff (retention time)", "setting": "epichaperomes [3]; epichaperome-zelavespib assembly", "result": 67.56, "unit": "h"}, {"measurement": "koff, dissociation of epichaperome-zelavespib assembly", "setting": "epichaperomes [3]; taken as k of tumor Phase 2", "result": 0.0148, "unit": "h⁻¹"}]}
